According to patent publication US11420998B2, “Aromatic-cationic peptides and methods for using same” (Stealth Biotherapeutics Inc., priority 2011, dated 2022):
Square brackets hold non-standard residues; d marks the D form. Ends that are not written are not given here. Peptide text beside a SMILES is read from it. Dmt = Cc1cc(O)cc(C)c1C[C@H](N)C(=O)O

Key:
[1] = tested on: several mammalian cell types; conditions: energy-independent manner (Zhao et al., 2003); cited from earlier work
in vivo = assay: in vivo
Protocol: Six weeks after induction of RAS, animals were similarly anesthetized, the degree of stenosis determined by angiography, and subjects were treated with PTRA or sham. Heating pads maintained the animal's body temperature by about 37° C. during surgery, and PTRA and stenting performed under fluoroscopic guidance, as previously described. In addition, ARAS subjects were treated with a continuous intravenous infusion of peptide 0.050 mg/kg or an equal volume of saline vehicle from 30 min before to 3.5 hrs after PTRA or sham. […] Urinary samples were collected before peptide infusion and 210 min after PTRA.
4 mL venous whole blood samples were collected from peptide-treated animals at baseline (immediately before peptide infusion), immediately before PTRA, and 30 and 180 min post-reperfusion. Venous blood were drawn using syringes into BD Vacutainer® PST™ Plasma Separation Tubes (lavender top) containing K2EDTA, 10 mL/tube. Tubes were gently inverted 8 times and kept in an ice water bath until centrifugation. Within an hour samples were centrifuged in a swing bucket centrifuge at 1000-1300 RCF (or […]) for 15 min at 4° C. Plasma were harvested from individual blood tubes, placed in a single polypropylene vials (or screw-cap tubes) and stored at approximately −80° C. until assay.
The plasma concentration of D-Arg-2′,6′-Dmt-Lys-Phe-NH2 was determined using a qualified LC/MS/MS assay in K2-EDTA pig plasma. The assay employed deuterium labeled d5-D-Arg-2′,6′-Dmt-Lys-Phe-NH2 as the analytical internal standard (IS). […] Positive (M+2H)^2+ ions for D-Arg-2′,6′-Dmt-Lys-Phe-NH2 and the IS (d5-D-Arg-2′,6′-Dmt-Lys-Phe-NH2) were monitored in MRM mode. Drug-to-IS peak area ratios for the standards were used to create a linear calibration curve ranging from 2.5 to 1000 ng/mL.
Peptide IV infusion started at 30 minutes prior to the PTRA procedure and continued for 210 minutes at 0.05 mg/kg/h.

[2] = tested on: inner mitochondrial membrane; conditions: cited from earlier work
mu-opioid receptor = mu-opioid receptor (Homo sapiens, UniProt P35372); conditions: stated without data; assays cited; cited from earlier work
Sequence of mu-opioid receptor (P35372 whole entry, species assumed): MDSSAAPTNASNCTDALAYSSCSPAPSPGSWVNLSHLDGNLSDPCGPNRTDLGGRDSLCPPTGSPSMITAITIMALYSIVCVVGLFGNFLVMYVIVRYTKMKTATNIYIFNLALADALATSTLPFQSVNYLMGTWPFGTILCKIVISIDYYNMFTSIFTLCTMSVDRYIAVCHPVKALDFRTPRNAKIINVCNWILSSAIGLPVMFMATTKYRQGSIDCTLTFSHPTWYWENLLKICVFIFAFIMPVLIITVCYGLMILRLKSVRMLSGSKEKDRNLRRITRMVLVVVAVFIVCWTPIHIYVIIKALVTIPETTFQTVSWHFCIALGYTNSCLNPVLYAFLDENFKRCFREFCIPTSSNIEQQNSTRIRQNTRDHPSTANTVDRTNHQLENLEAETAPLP

2′,6′-Dmt-D-Arg-Phe-Lys-NH2
penetration of the plasma membrane [1]: readily penetrates

Cc1cc(O)cc(C)c1C[C@H](NC(=O)[C@H](N)CCCNC(=N)N)C(=O)N[C@@H](CCCCN)C(=O)N[C@@H](Cc1ccccc1)C(N)=O [D-Arg-2′,6′-Dmt-Lys-Phe-NH2] (H-[dR][Dmt]KF-NH2)
Mean peptide Concentration (in vivo; 0 min from peptide infusion (−30 min from PTRA), 3.5-h IV infusion 0.05 mg/kg/h): BQL | Mean peptide Concentration (in vivo; 30 min from peptide infusion (time of PTRA), IV infusion 0.05 mg/kg/h): 100.6 ± 36.2 ng/mL | Mean peptide Concentration (in vivo; 30 min from peptide infusion (time of PTRA), IV infusion 0.05 mg/kg/h, listed as Peptide): 100.6 ng/mL | level at 0.5 h (in vivo; pig, plasma, iv, 0.05 mg/kg/h, Mean peptide Concentration, 30 min from peptide infusion (time of PTRA), IV infusion 0.05 mg/kg/h): ~100 ng/mL | level at 1 h (in vivo; pig, plasma, iv, 0.05 mg/kg/h, Mean peptide Concentration, 60 min from peptide infusion (30 min from PTRA), IV infusion 0.05 mg/kg/h): 118 ± 23.7 ng/mL | level at 1.5 h (in vivo; pig, plasma, iv, 0.05 mg/kg/h, Mean peptide Concentration, 90 min from peptide infusion (60 min from PTRA), IV infusion 0.05 mg/kg/h): 125 ± 21.4 ng/mL | level at 3.5 h (in vivo; pig, plasma, iv, 0.05 mg/kg/h, Mean peptide Concentration, 210 min from peptide infusion (180 min from PTRA), IV infusion 0.05 mg/kg/h): 111 ± 42 ng/mL | time to apparent steady state concentration (in vivo; post start of IV infusion): 60 to 90 min | concentration in the inner mitochondrial membrane [2]: 500-5000 fold

F[dR]FK-NH2
mu-opioid receptor agonist activity (mu-opioid receptor): does not have mu-opioid receptor agonist activity

Tyr-D-Arg-Phe-Lys-NH2
mu-opioid receptor agonist activity (mu-opioid receptor): has mu-opioid receptor agonist activity
